Test results: US10730771B2, “Method for operating reverse-osmosis membrane treatment system” (priority 2015, dated 2020)

Test system: microorganisms adhered on the surfaces of test pieces
Experiment: Test example I: adhesion of slime (microorganisms, as ATP) to SUS316L test pieces in flow columns
Assay type: cell-based
Settings: 13 days; for Amount of microorganisms adhered: 1.7 L/min, no treatment 121
Method: A test for confirming the capabilities of a combined-chlorine slime-control agent and a stabilized-bromine slime-control agent to reduce the adhesion of slime to the energy recovery device was conducted.
Water produced by treating wastewater from Kurita Global Technology Center of Kurita Water Industries Ltd. was used as test water.
In the testing apparatus, the test water fed from a pipe 20 is split into pipes 21, 22, and 23 and passed through columns 31, 32, and 33 provided with test pieces 31a, 32a, and 33a (3 cm×5 cm test pieces made of SUS316L) fixed to the respective inner walls. FI1, FI2, and FI3 represent a flow meter. V1, V2, and V3 represent a valve.
The test water was passed into the columns 31 to 33 through the branch pipes 21 to 23 at a flow rate of 1.7 L/min for 13 days. While the test water was passed through the testing apparatus, the chemical-1 was injected into the pipe 22 such that the total chlorine concentration measured by the DPD method produced by HACH was 1.0 mg/L (Test No. 2), and the chemical-2 was injected into the pipe 23 such that the total chlorine concentration measured by the same method as in Test No. 2 was 0.8 mg/L (Test No. 3). No chemical (no treatment) was added to the pipe 21 (Test No. 1).
After the test water had been passed through the testing apparatus for 13 days, the test pieces 31a to 33a were removed, and the microorganisms adhered on the surfaces thereof were sampled. The amount of microorganisms adhered on the surface of each of the test pieces was measured with a “Lumitester C-110” produced by Kikkoman Biochemifa Company. The amount of microorganisms was measured as ATP and expressed in the unit of pg/cm^2.

Compound | adhesion of microorganisms compared with no treatment (1.0 mg/L as total chlorine) | Amount of microorganisms adhered (Test No. 2, 1.0 mg/L as total chlorine) [ATP pg/cm^2] | adhesion of microorganisms compared with no treatment (0.8 mg/L as total chlorine) | Amount of microorganisms adhered (Test No. 3, 0.8 mg/L as total chlorine) [ATP pg/cm^2]
O=S(=O)([O-])NCl.[Na+] [NHClSO3Na, sodium monochlorosulfamate] | reduced the adhesion of microorganisms | 49 |  | 
bromosulfamate [Chemical-2] |  |  | reduced the adhesion of microorganisms | 72
